Patent publication US20240000767A1, “COMBINATION OF AN ALPHA2-ADRENOCEPTOR SUBTYPE C (ALPHA-2C) ANTAGONIST WITH A TASK1/3 CHANNEL BLOCKER FOR THE TREATMENT OF SLEEP APNEA” (Bayer Aktiengesellschaft, priority 2020, published 2024)

Test system: anaesthetized, spontaneously breathing pigs
Assay: Pig model of obstructive sleep apnea (OSA): upper airway collapsibility under negative pressure
Assay type: in vivo, German Landrace pigs
Conditions: for time points at which upper airway collapsibility was inhibited at all negative pressures of −50, −100 and −150 cm H2O in all pigs / upper airway collapsibility: alone
Source text: B-3 Animal Model of Obstructive Sleep Apnoea in the Pig
Using negative pressure, it is possible to induce collapse and thus obstruction of the upper respiratory tract in anesthetized, spontaneously breathing pigs [Wirth et al., Sleep 36, 699-708 (2013)].
German Landrace pigs are used for the model. The pigs are anesthetized and tracheotomized. One cannula each is inserted into the rostral and the caudal part of the trachea. Using a T connector, the rostral cannula is connected on the one hand to a device generating negative pressures and on the other hand to the caudal cannula. Using a T connector, the caudal cannula is connected to the rostral cannula and to a tube which allows spontaneous breathing circumventing the upper respiratory tract. By appropriate closing and opening of the tubes it is thus possible for the pig to change from normal nasal breathing to breathing via the caudal cannula during the time when the upper respiratory tract is isolated and connected to the device for generating negative pressures. The muscle activity of the musculus genioglossus is recorded by electromyogram (EMG).
(§1) At certain points in time, the collapsibility of the upper respiratory tract is tested by having the pig breathe via the caudal cannula and applying negative pressures of −50, −100 and −150 cm water head (cmH2O) to the upper respiratory tract. This causes the upper respiratory tract to collapse, which manifests itself in an interruption of the airflow and a pressure drop in the tube system. This test is conducted prior to the administration of the test substance and at certain intervals after the administration of the test substance. An appropriately effective test substance can prevent this collapse of the respiratory tract in the inspiratory phase.
Administration of the test substance can be intranasal, intravenous, subcutaneous, intraperitoneal, intraduodenal or intragastral.
The therapeutic potential of the combination of an α2-Adrenoceptor subtype C (alpha-2C) antagonists with a TASK⅓ channel blocker according to the present invention in sleep apnea can be assessed preclinically in a pig model of obstructive sleep apnea (OSA).
Using negative pressure, it is possible to induce collapse and thus obstruction of the upper respiratory tract in anaesthetized, spontaneously breathing pigs (Wirth K. J. et al., Sleep 36(5) (2013) pp. 699-708).
German Landrace pigs are used for the model. The pigs are anaesthetized and tracheotomized. Two tracheal cannulas are inserted into the trachea, one into the rostral part and the other into the caudal part of the trachea. Using a connection piece, the rostral cannula is connected to a tube to the negative pressure device and to the distal tracheal cannula. The distal tracheal cannula is additionally connected to a tube with an open end to atmosphere via a connection piece that served for free tracheal breathing, circumventing the upper airway. By appropriate opening and clamping of those tubes breathing can be switched from nasal breathing to breathing through the caudal tracheal cannula, circumventing the upper airway, and the (isolated) upper airway can be connected to the negative pressure device, causing airflow in the inspiratory direction.
as §1, with “(cm H2O)” for “(cmH2O)”

[1] = 15 μg/kg i.v. bolus then 5 μg/kg/h i.v. infusion for four hours from 0 min, time 0 min
[2] = 15 μg/kg i.v. bolus then 5 μg/kg/h i.v. infusion for four hours from 0 min, time 30 min
[3] = 15 μg/kg i.v. bolus then 5 μg/kg/h i.v. infusion for four hours from 0 min, time 60 min
[4] = 15 μg/kg i.v. bolus then 5 μg/kg/h i.v. infusion for four hours from 0 min, time 90 min
[5] = 15 μg/kg i.v. bolus then 5 μg/kg/h i.v. infusion for four hours from 0 min, time 120 min
[6] = 0.3 μg intranasal at 0 min, time 0 min
[7] = 0.3 μg intranasal at 0 min, time 10 min
[8] = 0.3 μg intranasal at 0 min, time 30 min
[9] = 0.3 μg intranasal at 0 min, time 60 min
[10] = 0.3 μg intranasal at 0 min, time 90 min
[11] = 0.01 mg/kg intraduodenal at 0 min, time 0 min
[12] = 0.01 mg/kg intraduodenal at 0 min, time 30 min
[13] = 0.01 mg/kg intraduodenal at 0 min, time 60 min
[14] = 0.01 mg/kg intraduodenal at 0 min, time 90 min
[15] = 0.01 mg/kg intraduodenal at 0 min, time 120 min
[16] = 0.01 mg/kg intraduodenal at 0 min, time 150 min
[17] = 0.01 mg/kg intraduodenal at 0 min, time 180 min
[18] = 0.01 mg/kg intraduodenal at 0 min, time 210 min
[19] = 0.01 mg/kg intraduodenal at 0 min, time 230 min
[20] = second set, 0.01 mg/kg intraduodenal at 0 min, time 0 min
[21] = second set, 0.01 mg/kg intraduodenal at 0 min, time 30 min
[22] = second set, 0.01 mg/kg intraduodenal at 0 min, time 60 min
[23] = second set, 0.01 mg/kg intraduodenal at 0 min, time 90 min
[24] = second set, 0.01 mg/kg intraduodenal at 0 min, time 120 min
[25] = second set, 0.01 mg/kg intraduodenal at 0 min, time 150 min
[26] = second set, 0.01 mg/kg intraduodenal at 0 min, time 180 min

With `COCC1CCCN(C2CCN(c3ncc(C(=O)NCc4ncc(F)cc4F)s3)CC2)C1` (stereo not shown) the “Percent pigs without collaps −50 cm H2O” value [1] was 0%, the “Percent pigs without collaps −100 cm H2O” value [1] was 0% and the “Percent pigs without collaps −150 cm H2O” value [1] was 0%. For the same molecule, the “Percent pigs without collaps −50 cm H2O” value [2] was 0%, the “Percent pigs without collaps −100 cm H2O” value [2] was 0% and the “Percent pigs without collaps −150 cm H2O” value [2] was 0%. For the same molecule, the “Percent pigs without collaps −50 cm H2O” value [3] was 0%, the “Percent pigs without collaps −100 cm H2O” value [3] was 0% and the “Percent pigs without collaps −150 cm H2O” value [3] was 0%. The “Percent pigs without collaps −50 cm H2O” value [4] was 50%, the “Percent pigs without collaps −100 cm H2O” value [4] was 50% and the “Percent pigs without collaps −150 cm H2O” value [4] was 50%. For the same molecule, the “Percent pigs without collaps −50 cm H2O” value [5] was 0%, the “Percent pigs without collaps −100 cm H2O” value [5] was 0% and the “Percent pigs without collaps −150 cm H2O” value [5] was 0%. The “time points at which upper airway collapsibility was inhibited at all negative pressures of −50, −100 and −150 cm H2O in all pigs” value (third set, 15 μg/kg i.v. bolus followed by i.v. infusion of 5 μg/kg/h for four hours) was “at no time point”.
With `COc1ccc(Cl)c(C(=O)N2C3CCC2CN(Cc2c(-c4ccc(C(C)C)cc4)nc4ncccn24)C3)n1` [(3-chloro-6-methoxypyridin-2-yl)(3-{[2-(4-isopropylphenyl)imidazo[1,2-a]pyrimidin-3-yl]methyl}-3,8-diazabicyclo[3.2.1]oct-8-yl)methanone] the “Percent pigs without collaps −50 cm H2O” value [6] was 0%, the “Percent pigs without collaps −100 cm H2O” value [6] was 0% and the “Percent pigs without collaps −150 cm H2O” value [6] was 0%. For the same molecule, the “Percent pigs without collaps −50 cm H2O” value [7] was 33%, the “Percent pigs without collaps −100 cm H2O” value [7] was 33% and the “Percent pigs without collaps −150 cm H2O” value [7] was 0%. The “Percent pigs without collaps −50 cm H2O” value [8] was 0%, the “Percent pigs without collaps −100 cm H2O” value [8] was 0% and the “Percent pigs without collaps −150 cm H2O” value [8] was 0%. For the same molecule, the “Percent pigs without collaps −50 cm H2O” value [9] was 0%, the “Percent pigs without collaps −100 cm H2O” value [9] was 0% and the “Percent pigs without collaps −150 cm H2O” value [9] was 0%. For the same molecule, the “Percent pigs without collaps −50 cm H2O” value [10] was 0%, the “Percent pigs without collaps −100 cm H2O” value [10] was 0% and the “Percent pigs without collaps −150 cm H2O” value [10] was 0%.
`COc1cccc(C(=O)N2CCN(Cc3c(-c4ccc(Cl)cc4)nc4ccccn34)CC2)n1` [(4-{[2-(4-chlorophenyl)imidazo[1,2-a]pyridin-3-yl]methyl}piperazin-1-yl)(6-methoxypyridin-2-yl)methanone] was tested, and the “Percent pigs without collaps −50 cm H2O” value [6] was 0%, the “Percent pigs without collaps −100 cm H2O” value [6] was 0% and the “Percent pigs without collaps −150 cm H2O” value [6] was 0%. The “Percent pigs without collaps −50 cm H2O” value [7] was 0%, the “Percent pigs without collaps −100 cm H2O” value [7] was 0% and the “Percent pigs without collaps −150 cm H2O” value [7] was 0%. The “Percent pigs without collaps −50 cm H2O” value [8] was 0%, the “Percent pigs without collaps −100 cm H2O” value [8] was 0% and the “Percent pigs without collaps −150 cm H2O” value [8] was 0%. The “Percent pigs without collaps −50 cm H2O” value [9] was 0%, the “Percent pigs without collaps −100 cm H2O” value [9] was 0% and the “Percent pigs without collaps −150 cm H2O” value [9] was 0%.
`C[C@@H]1CCCN(C2CCN(c3ncc(C(=O)NCc4ncc(F)cc4F)s3)CC2)C1` [N-[(3,5-difluoropyridin-2-yl)methyl]-2-[(3R)-3-methyl[1,4′-bipiperidin]-1′-yl]-1,3-thiazole-5-carboxamide] was tested, and the “Percent pigs without collaps −50 cm H2O” value [11] was 0%, the “Percent pigs without collaps −100 cm H2O” value [11] was 0% and the “Percent pigs without collaps −150 cm H2O” value [11] was 0%. For the same molecule, the “Percent pigs without collaps −50 cm H2O” value [12] was 0%, the “Percent pigs without collaps −100 cm H2O” value [12] was 0% and the “Percent pigs without collaps −150 cm H2O” value [12] was 0%. For the same molecule, the “Percent pigs without collaps −50 cm H2O” value [13] was 0%, the “Percent pigs without collaps −100 cm H2O” value [13] was 0% and the “Percent pigs without collaps −150 cm H2O” value [13] was 0%. The “Percent pigs without collaps −50 cm H2O” value [14] was 33%, the “Percent pigs without collaps −100 cm H2O” value [14] was 33% and the “Percent pigs without collaps −150 cm H2O” value [14] was 33%. For the same molecule, the “Percent pigs without collaps −50 cm H2O” value [15] was 100%, the “Percent pigs without collaps −100 cm H2O” value [15] was 100% and the “Percent pigs without collaps −150 cm H2O” value [15] was 67%. For the same molecule, the “Percent pigs without collaps −50 cm H2O” value [16] was 100%, the “Percent pigs without collaps −100 cm H2O” value [16] was 100% and the “Percent pigs without collaps −150 cm H2O” value [16] was 100%. For the same molecule, the “Percent pigs without collaps −50 cm H2O” value [17] was 100%, the “Percent pigs without collaps −100 cm H2O” value [17] was 100% and the “Percent pigs without collaps −150 cm H2O” value [17] was 100%. The “Percent pigs without collaps −50 cm H2O” value [18] was 67%, the “Percent pigs without collaps −100 cm H2O” value [18] was 33% and the “Percent pigs without collaps −150 cm H2O” value [18] was 0%. For the same molecule, the “Percent pigs without collaps −50 cm H2O” value [19] was 0%, the “Percent pigs without collaps −100 cm H2O” value [19] was 0% and the “Percent pigs without collaps −150 cm H2O” value [19] was 0%. For the same molecule, the upper airway collapsibility (0.01 mg/kg intraduodenal, 230 min after administration, all pigs) was “induced at all negative pressures”, the “time points at which upper airway collapsibility was inhibited at all negative pressures of −50, −100 and −150 cm H2O in all pigs” value (0.01 mg/kg intraduodenal, first set) was “only at time point 150 and 180 min” and the “time points at which upper airway collapsibility was inhibited at all negative pressures of −50, −100 and −150 cm H2O in all pigs” value (0.01 mg/kg intraduodenal, second set) was “at no time point”. For the same molecule, the “Percent pigs without collaps −50 cm H2O” value [20] was 0%, the “Percent pigs without collaps −100 cm H2O” value [20] was 0% and the “Percent pigs without collaps −150 cm H2O” value [20] was 0%. The “Percent pigs without collaps −50 cm H2O” value [21] was 0%, the “Percent pigs without collaps −100 cm H2O” value [21] was 0% and the “Percent pigs without collaps −150 cm H2O” value [21] was 0%. The “Percent pigs without collaps −50 cm H2O” value [22] was 50%, the “Percent pigs without collaps −100 cm H2O” value [22] was 0% and the “Percent pigs without collaps −150 cm H2O” value [22] was 0%. The “Percent pigs without collaps −50 cm H2O” value [23] was 100%, the “Percent pigs without collaps −100 cm H2O” value [23] was 50% and the “Percent pigs without collaps −150 cm H2O” value [23] was 50%. The “Percent pigs without collaps −50 cm H2O” value [24] was 100%, the “Percent pigs without collaps −100 cm H2O” value [24] was 100% and the “Percent pigs without collaps −150 cm H2O” value [24] was 0%. For the same molecule, the “Percent pigs without collaps −50 cm H2O” value [25] was 50%, the “Percent pigs without collaps −100 cm H2O” value [25] was 0% and the “Percent pigs without collaps −150 cm H2O” value [25] was 0%. For the same molecule, the “Percent pigs without collaps −50 cm H2O” value [26] was 0%, the “Percent pigs without collaps −100 cm H2O” value [26] was 0% and the “Percent pigs without collaps −150 cm H2O” value [26] was 0%. For the same molecule, the upper airway collapsibility (second set, 0.01 mg/kg intraduodenal, 90 min after administration) was “only inhibited at negative pressures of −50 cm head”, the upper airway collapsibility (second set, 0.01 mg/kg intraduodenal, 120 min after administration) was “only inhibited at negative pressures of −50 and −100 cm head” and the upper airway collapsibility (second set, 0.01 mg/kg intraduodenal, 180 min after administration, all pigs) was “induced at all negative pressures”.
